Reference: ChEMBL document CHEMBL1201861, “Genomics of Drug Sensitity in Cancer screening data, Wellcome Trust Sanger Institute”

Legend:
Test in all cases: cells
HuP-T4 = assay type: functional, cell-based, Homo sapiens; conditions: Homo sapiens, HuP-T4;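 further: cell viability assay measuring how much HuP-T4 cell growth is inhibited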
Description: SANGER: Inhibition of human HuP-T4 cell growth in a cell viability assay.

IA-LM = assay type: functional, cell-based, Homo sapiens; conditions: Homo sapiens, IA-LM;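 further: cell viability assay measuring growth inhibition of human IA-LM cells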
Description: SANGER: Inhibition of human IA-LM cell growth in a cell viability assay.

IST-SL1 = assay type: functional, cell-based, Homo sapiens; conditions: Homo sapiens, IST-SL1;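 further: growth inhibition of human IST-SL1 cells, read out with a cell viability assay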
Description: SANGER: Inhibition of human IST-SL1 cell growth in a cell viability assay.

G-402 = assay type: functional, cell-based, Homo sapiens; conditions: Homo sapiens, G-402
Description: SANGER: Inhibition of human G-402 cell growth in a cell viability assay.

A-431 = assay type: functional, cell-based, Homo sapiens; conditions: Homo sapiens, A-431;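 further: growth inhibition of A-431 cells, determined with a cell viability read-out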
Description: SANGER: Inhibition of human A431 cell growth in a cell viability assay.

H4 = assay type: functional, cell-based; conditions: Homo sapiens
Description: SANGER: Inhibition of human H4 cell growth in a cell viability assay.

697 = assay type: functional, cell-based; conditions: Homo sapiens
Description: SANGER: Inhibition of human 697 cell growth in a cell viability assay.

GCT = assay type: functional, cell-based, Homo sapiens; conditions: Homo sapiens, GCT;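 further: GCT cell line proliferation inhibition, read out with a cell viability assay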
Description: SANGER: Inhibition of human GCT cell growth in a cell viability assay.

CAL-85-1 = assay type: functional, cell-based; conditions: Homo sapiens;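 further: growth inhibition of human CAL-85-1 cells, read out with a cell viability assay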
Description: SANGER: Inhibition of human CAL-85-1 cell growth in a cell viability assay.

NTERA-2-cl-D1 = assay type: functional, cell-based, Homo sapiens; conditions: Homo sapiens, NTERA-2-cl-D1;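 further: inhibition of cell growth, measured with a cell viability assay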
Description: SANGER: Inhibition of human NTERA-S-cl-D1 cell growth in a cell viability assay.

A204 = assay type: functional, cell-based, Homo sapiens; conditions: Homo sapiens, A204;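 further: growth inhibition of human A204 cells, read out with a cell viability assay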
Description: SANGER: Inhibition of human A204 cell growth in a cell viability assay.

KM-H2 = assay type: functional, cell-based; conditions: Homo sapiens;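 further: growth inhibition of KM-H2 cells, read out by a cell viability assay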
Description: SANGER: Inhibition of human KM-H2 cell growth in a cell viability assay.

SK-NEP-1 = assay type: functional, cell-based; conditions: Homo sapiens;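 further: growth inhibition of human SK-NEP-1 cells, read out by a cell viability assay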
Description: SANGER: Inhibition of human SK-NEP-1 cell growth in a cell viability assay.

HAL-01 = assay type: functional, cell-based; conditions: Homo sapiens;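 further: growth inhibition of human HAL-01 cells, read out with a cell viability assay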
Description: SANGER: Inhibition of human HAL-01 cell growth in a cell viability assay.

LS-411N = assay type: functional, cell-based, Homo sapiens; conditions: Homo sapiens, LS-411N
OVCAR-4 = assay type: functional, cell-based, Homo sapiens; conditions: Homo sapiens, OVCAR-4;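 further: growth inhibition of human OVCAR-4 cells, measured with a cell viability assay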
Description: SANGER: Inhibition of human OVCAR-4 cell growth in a cell viability assay.

OCI-AML2 = assay type: functional, cell-based; conditions: Homo sapiens;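 further: growth inhibition of OCI-AML2 cells, read out with a cell viability assay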
Description: SANGER: Inhibition of human OCI-AML2 cell growth in a cell viability assay.

SK-OV-3 = assay type: functional, cell-based, Homo sapiens; conditions: Homo sapiens, SK-OV-3;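 further: growth inhibition of SK-OV-3 human cells, read out with a cell viability assay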
Description: SANGER: Inhibition of human SK-OV-3 cell growth in a cell viability assay.

BEN = assay type: functional, cell-based, Homo sapiens; conditions: Homo sapiens, BEN;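 further: growth inhibition of the BEN cell line, read out with a cell viability assay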
Description: SANGER: Inhibition of human BEN cell growth in a cell viability assay.

KOSC-2 = assay type: functional, cell-based, Homo sapiens; conditions: Homo sapiens, KOSC-2;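 further: growth inhibition of KOSC-2 cells, read out by a cell viability assay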
Description: SANGER: Inhibition of human KOSC-2 cell growth in a cell viability assay.

DK-MG = assay type: functional, cell-based, Homo sapiens; conditions: Homo sapiens, DK-MG;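 further: growth inhibition of DK-MG cells, read out with a cell viability assay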
Description: SANGER: Inhibition of human DK-MG cell growth in a cell viability assay.

KM12 = assay type: functional, cell-based, Homo sapiens; conditions: Homo sapiens, KM12;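 further: KM12 cell growth inhibition, read out with a cell viability assay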
Description: SANGER: Inhibition of human KM12 cell growth in a cell viability assay.

CAMA-1 = assay type: functional, cell-based, Homo sapiens; conditions: Homo sapiens, CAMA-1;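 further: growth inhibition of CAMA-1 cells, read out with a cell viability assay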
Description: SANGER: Inhibition of human CAMA-1 cell growth in a cell viability assay.

MEL-HO = assay type: functional, cell-based, Homo sapiens; conditions: Homo sapiens, MEL-HO
Description: SANGER: Inhibition of human MEL-HO cell growth in a cell viability assay.

UACC-257 = assay type: functional, cell-based, Homo sapiens; conditions: Homo sapiens, UACC-257
Description: SANGER: Inhibition of human UACC-257 cell growth in a cell viability assay.

MC116 = assay type: functional, cell-based; conditions: Homo sapiens;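 further: growth inhibition of MC116 cells, read out with a cell viability assay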
Description: SANGER: Inhibition of human MC116 cell growth in a cell viability assay.

RT-112 = assay type: functional, cell-based, Homo sapiens; conditions: Homo sapiens, RT-112
Description: SANGER: Inhibition of human RT-112 cell growth in a cell viability assay.

A-375 = assay type: functional, cell-based, Homo sapiens; conditions: Homo sapiens, A-375;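 further: growth inhibition of A375 cells, read out with a cell viability assay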
Description: SANGER: Inhibition of human A375 cell growth in a cell viability assay.

KS-1 = assay type: functional, cell-based, Homo sapiens; conditions: Homo sapiens, KS-1;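 further: growth inhibition of KS-1 cells, read out with a cell viability assay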
Description: SANGER: Inhibition of human KS-1 cell growth in a cell viability assay.

HCC1395 = assay type: functional, cell-based, Homo sapiens; conditions: Homo sapiens, HCC1395;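 further: growth inhibition of HCC1395 cells, read out by a cell viability assay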
Description: SANGER: Inhibition of human HCC1395 cell growth in a cell viability assay.

MFM-223 = assay type: functional, cell-based, Homo sapiens; conditions: Homo sapiens, MFM-223
Description: SANGER: Inhibition of human MFM-223 cell growth in a cell viability assay.

RPMI-7951 = assay type: functional, cell-based, Homo sapiens; conditions: Homo sapiens, RPMI-7951
Description: SANGER: Inhibition of human RPMI-7951 cell growth in a cell viability assay.

HCC1806 = assay type: functional, cell-based, Homo sapiens; conditions: Homo sapiens, HCC1806;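 further: growth inhibition of the cancer cell line, determined with a cell viability assay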
Description: SANGER: Inhibition of human HCC1806 cell growth in a cell viability assay.

TE-10 = assay type: functional, cell-based, Homo sapiens; conditions: Homo sapiens, TE-10;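 further: growth inhibition of TE-10 cells, measured by a cell viability assay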
Description: SANGER: Inhibition of human TE-10 cell growth in a cell viability assay.

KARPAS-299 = assay type: functional, cell-based; conditions: Homo sapiens
Description: SANGER: Inhibition of human KARPAS-299 cell growth in a cell viability assay.

LAMA-84 = assay type: functional, cell-based; conditions: Homo sapiens;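 further: growth inhibition of LAMA-84 cells, read out with a cell viability assay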
Description: SANGER: Inhibition of human LAMA-84 cell growth in a cell viability assay.

BE-13 = assay type: functional, cell-based; conditions: Homo sapiens;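 further: growth inhibition of human BE-13 cells, measured with a cell viability assay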
Description: SANGER: Inhibition of human BE-13 cell growth in a cell viability assay.

NCI-H1581 = assay type: functional, cell-based, Homo sapiens; conditions: Homo sapiens, NCI-H1581;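 further: cell growth inhibition read out by a viability assay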
Description: SANGER: Inhibition of human NCI-H1581 cell growth in a cell viability assay.

U-87 MG = assay type: functional, cell-based, U-87MG ATCC; conditions: Homo sapiens;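 further: growth inhibition of the cells measured with a viability assay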
Description: SANGER: Inhibition of human U-87-MG cell growth in a cell viability assay.

HuCCT-1 = assay type: functional, cell-based, Homo sapiens, HuCCT1; conditions: Homo sapiens, HuCCT-1;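 further: growth inhibition of HuCCT-1 cells, read out by a cell viability assay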
Description: SANGER: Inhibition of human HuCCT1 cell growth in a cell viability assay.

NB7 = assay type: functional, cell-based; conditions: Homo sapiens;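 further: growth inhibition of NB7 cells, read out with a cell viability assay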
Description: SANGER: Inhibition of human NB7 cell growth in a cell viability assay.

MG-63 = assay type: functional, cell-based, Homo sapiens; conditions: Homo sapiens, MG-63;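 further: growth inhibition of human MG-63 cells, read out with a cell viability assay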
Description: SANGER: Inhibition of human MG-63 cell growth in a cell viability assay.

DOK = assay type: functional, cell-based, Homo sapiens; conditions: Homo sapiens, DOK;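 further: cell viability assay read-out, values reflect inhibition of cell growth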
Description: SANGER: Inhibition of human DOK cell growth in a cell viability assay.

NCI-H727 = assay type: functional, cell-based, Homo sapiens; conditions: Homo sapiens, NCI-H727;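 further: growth inhibition of human NCI-H727 cells, read out with a cell viability assay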
Description: SANGER: Inhibition of human NCI-H727 cell growth in a cell viability assay.

JAR = assay type: functional, cell-based, Homo sapiens; conditions: Homo sapiens, JAR;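 further: growth inhibition of human JAR cells determined with a cell viability assay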
Description: SANGER: Inhibition of human JAR cell growth in a cell viability assay.

CAL-33 = assay type: functional, cell-based, Homo sapiens; conditions: Homo sapiens, CAL-33;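 further: growth inhibition of CAL-33 cells, read out with a cell viability assay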
Description: SANGER: Inhibition of human CAL-33 cell growth in a cell viability assay.

BFTC-905 = assay type: functional, cell-based, Homo sapiens; conditions: Homo sapiens, BFTC-905
Description: SANGER: Inhibition of human BFTC-905 cell growth in a cell viability assay.

OMC-1 = assay type: functional, cell-based, Homo sapiens; conditions: Homo sapiens, OMC-1;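 further: growth inhibition of the OMC-1 cell line, measured by a cell viability assay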
Description: SANGER: Inhibition of human OMC-1 cell growth in a cell viability assay.

HH = assay type: functional, cell-based; conditions: Homo sapiens
Description: SANGER: Inhibition of human HH cell growth in a cell viability assay.

UO-31 = assay type: functional, cell-based; conditions: Homo sapiens;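 further: cell viability assay measuring inhibition of cell growth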
Description: SANGER: Inhibition of human U031 cell growth in a cell viability assay.

SW1783 = assay type: functional, cell-based; conditions: Homo sapiens;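 further: cell growth inhibition measured with a viability assay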
Description: SANGER: Inhibition of human SW1783 cell growth in a cell viability assay.

CTV-1 = assay type: functional, cell-based; conditions: Homo sapiens;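 further: growth inhibition of the cell line, read out with a cell viability assay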
Description: SANGER: Inhibition of human CTV-1 cell growth in a cell viability assay.

Measured: IC50

O=c1cc(-c2cccc3c2Sc2ccccc2S3)oc(N2CCOCC2)c1 [KU-55933]
9.21 µM: KM12
4.58 µM: LAMA-84
8.28 µM: HH
not listed: CTV-1
> 10 µM: all other assays above

Cn1cc(C2=C(c3ccc(Cl)cc3Cl)C(=O)NC2=O)c2ccccc21 [SB-216763]
1.21 µM: JAR
9.02 µM: IST-SL1
9.1 µM: SK-OV-3
not listed: OMC-1
> 10 µM: all other assays above
